The source of these data is the NIST ThermoML archive (doi:10.1021/je050162g).

For series [1] the following is noted: Liquid; for viscosity / speed of sound: 101 kPa; for viscosity: Capillary tube (Ostwald / Ubbelohde) method; for speed of sound: Linear variable-path acoustic interferometer; for mass density: 101.33 kPa, Pycnometric method.
The nature of series [2]: xn = mol fraction of the nth substance listed. As to conditions: 101 kPa, Liquid, x1 = 1; for viscosity: Capillary tube (Ostwald / Ubbelohde) method; for excess molar volume: Direct dilatometry; for speed of sound: Linear variable-path acoustic interferometer.

Numbers after ± are expanded uncertainties.

Regarding `Cc1ccc(C)cc1` [1,4-dimethylbenzene], the viscosity in series [1] (303.15 K) is recorded as 0.566 ± 0.016 mPa·s; in series [1] (308.15 K) it was 0.537 ± 0.015 mPa·s; in series [1] (313.15 K), 0.513 ± 0.015 mPa·s. Moreover, the speed of sound in series [1] (303.15 K) was determined as 1283.7 ± 5.2 m/s; in series [1] (308.15 K) it was 1271 ± 5.2 m/s; in series [1] (313.15 K), 1260 ± 5.2 m/s. Moreover, the mass density in series [1] (303.15 K) is recorded as 852.3 ± 2.3 kg/m3; in series [1] (308.15 K) it was 847.9 ± 2.3 kg/m3; in series [1] (313.15 K), 843.6 ± 2.3 kg/m3. For the same compound, the “vapor or sublimation pressure” value in series [1] (410 K) stood at 97.3 ± 3 kPa.
For the compound `C=COC(C)=O` [vinyl acetate], in series [1] (303.15 K), the viscosity was determined as 0.384 ± 0.012 mPa·s, the speed of sound was 1095.9 ± 5.2 m/s and the mass density turned out to be 918 ± 6.8 kg/m3. In series [1] (308.15 K), the viscosity came out at 0.361 ± 0.011 mPa·s, the speed of sound worked out at 1072.5 ± 5.1 m/s and the mass density stood at 904.2 ± 6.7 kg/m3. Further, in series [1] (313.15 K), the viscosity is given as 0.332 ± 0.011 mPa·s, the speed of sound is recorded as 1055.7 ± 5.1 m/s and the mass density is 891.8 ± 6.7 kg/m3. Further, the “vapor or sublimation pressure” value in series [1] (344.68 K) turned out to be 97.3 ± 3 kPa.
As for `Cc1ccc(C)cc1` [1,4-dimethylbenzene] + C=COC(C)=O, in series [2] (303.15 K), the viscosity stood at 0.566 ± 0.016 mPa·s, the excess molar volume is given as 0 ± 6e-09 m3/mol and the speed of sound turned out to be 1283.7 ± 5.2 m/s. Moreover, in series [2] (308.15 K), the viscosity is 0.537 ± 0.015 mPa·s, the excess molar volume was found to be 0 ± 6e-09 m3/mol and the speed of sound was found to be 1271 ± 5.2 m/s. Further, in series [2] (313.15 K), the viscosity turned out to be 0.513 ± 0.015 mPa·s, the excess molar volume is recorded as 0 ± 6e-09 m3/mol and the speed of sound was determined as 1260 ± 5.2 m/s.
